Results taken from paper PMC7035259, “T-13 and T-26, the novel taxanes with improved oral bioavailability in rats” (Scientific Reports, 2020).

Legend:
[1] = Pharmacokinetics after intravenous and oral administration in rats (LC-MS/MS of plasma); assay type: in vivo, male Sprague-Dawley (S.D.) rats; details: oral 60 mg/kg vs intravenous 5 mg/kg, F = (AUCp.o × Dosei.v)/(AUCi.v × Dosep.o) × 100%; for bioavailability: male, Sprague-Dawley, rat, plasma, read-out: F (absolute oral bioavailability)
Experimental: For the pharmacokinetic study, male S.D. rats (average weight 300 g) were fasted overnight to prevent coprophagia but allowing free access to water. The rats were randomly divided into four groups (6 animals each). The dosages of taxanes used in the pharmacokinetic study were based on the previously published reports[15]–[17]. For solution, T-13 and T-26 were dissolved in a mixture of Tween 80 and ethanol (50:50, v/v) at 50 mg/mL for intravenous and oral administration, respectively. Group I received the T-13 stock solution diluted with normal saline solution up to 1 mL at a dose of 5 mg/kg for intravenous injection. Group II received T-13 at a dose of 60 mg/kg for oral administration. Group III received the compound T-26 stock solution diluted with normal saline solution up to 1 mL at a dose of 5 mg/kg for intravenous injection. Group IV received T-26 at a dose of 60 mg/kg for oral administration.
Blood samples (~0.20 mL) were collected into heparin coated tubes at 0, 5, 10, 20, 40 min, 1, 2, 4, 6, 8, 12 and 24 h after intravenous injection and 5, 15, 30, 45 min, 1, 2, 4, 6, 8, 12 and 24 h after oral administration. Blood samples were centrifuged at 12,000 rpm for 10 min. The supernatant fractions were transferred into labeled microcentrifuge tubes and stored at −40 °C until LC-MS/MS analysis.
The concentration of T-13 and T-26 were determined in plasma by LC/MS as described above. Calibration curves were used for the conversion of the T-13/Paclitaxel chromatographic area to the concentration. Calibrator and quality control samples were prepared by adding appropriate volumes of standard T-13 or T-26 acetonitrile solution to drug-free plasma. Calibration curves were designed over the range 5–10,000 ng/mL (γ^2 > 0.999). An aliquot (100 μL) of plasma sample was mixed with 100 μL of acetonitrile containing internal standard (PTX, 500 ng/mL), followed by vortex mixing. Then the mixture was added 3 mL of ethyl acetate, followed by vortex gentle agitation for 3 min. […] The supernatant fraction was transferred to auto-sampler vial, and analyzed by HPLC. […]
The pharmacokinetic analysis of concentration-time data obtained after the administration of the compounds T-13 and T-26 were analyzed by a noncompartmental model using Xcalibur® (version 1.3) Software (Thermo Finnigan). The following pharmacokinetic parameters were calculated from the plasma data of Group I and Group III using WinNonlin5.2. Software: total area under the plasma concentration versus time curve, determined by extrapolation from 0 to ∞ after intravenous administration (AUCiv), half-life of the terminal phase (t1/2) and the mean residence time (MRT). Other parameters such as maximum plasma concentration (Cmax) and the time to reach Cmax (Tmax) were also analyzed after oral administration in rats.

[2] = biological target: T1, P-glycoprotein (P-gp) (Homo sapiens, UniProt P08183); assay: Interaction with P-gp in MDCK-MDR1 and MDCK-WT cell permeability studies; assay type: in vitro ADME; details: MDCK-MDR1 and MDCK-WT cells; for P-gp substrate activity: with and without a P-gp inhibitor (such as verapamil); for P-gp inhibition: with and without a P-gp substrate (such as digoxin)
T1 construct: expressed in transfected cells; host or cells: MDCK-MDR1 (Madin-Darby canine kidney cells carrying MDR1); MDCK-WT as control
Description: In an attempt to increase the solubility of taxoids and develop more safe clinical formulations, we previously synthesized a series of novel taxol analogs by modifying the positions of C7, C10, C14 and C3′, which have improved water solubility and oral bioavailability. […] In order to further evaluate the substrate activity of novel taxol analogs with P-gp and whether they are P-gp inhibitors, T-13 and T-26 were selected based on structural characteristics (with or without 1, 14-carbonate moiety) and cytotoxicity in vitro for evaluation of the interaction with P-gp in Madin-Darby canine kidney (MDCK)-multidrug resistance-1 (MDR1) and MDCK-wild type (WT) cells (a more P-gp specific model)[13],[14] permeability studies, under two sets of conditions: one with and without a P-gp inhibitor (such as verapamil) to look at whether the test compounds were P-gp substrates or not, one with and without a P-gp substrate (such as digoxin) to look at whether the test compounds were P-gp inhibitors or not. […] Therefore, the permeability of the Caco-2 cells was enhanced in vitro.

[3] = test system: Caco-2 monolayer cells; parameters: method as in PMID 24332858; details: cited from earlier work
[4] = parameters: method as in PMID 23811429; details: paclitaxel, rats; cited from earlier work

T1 sequence (P08183 whole entry): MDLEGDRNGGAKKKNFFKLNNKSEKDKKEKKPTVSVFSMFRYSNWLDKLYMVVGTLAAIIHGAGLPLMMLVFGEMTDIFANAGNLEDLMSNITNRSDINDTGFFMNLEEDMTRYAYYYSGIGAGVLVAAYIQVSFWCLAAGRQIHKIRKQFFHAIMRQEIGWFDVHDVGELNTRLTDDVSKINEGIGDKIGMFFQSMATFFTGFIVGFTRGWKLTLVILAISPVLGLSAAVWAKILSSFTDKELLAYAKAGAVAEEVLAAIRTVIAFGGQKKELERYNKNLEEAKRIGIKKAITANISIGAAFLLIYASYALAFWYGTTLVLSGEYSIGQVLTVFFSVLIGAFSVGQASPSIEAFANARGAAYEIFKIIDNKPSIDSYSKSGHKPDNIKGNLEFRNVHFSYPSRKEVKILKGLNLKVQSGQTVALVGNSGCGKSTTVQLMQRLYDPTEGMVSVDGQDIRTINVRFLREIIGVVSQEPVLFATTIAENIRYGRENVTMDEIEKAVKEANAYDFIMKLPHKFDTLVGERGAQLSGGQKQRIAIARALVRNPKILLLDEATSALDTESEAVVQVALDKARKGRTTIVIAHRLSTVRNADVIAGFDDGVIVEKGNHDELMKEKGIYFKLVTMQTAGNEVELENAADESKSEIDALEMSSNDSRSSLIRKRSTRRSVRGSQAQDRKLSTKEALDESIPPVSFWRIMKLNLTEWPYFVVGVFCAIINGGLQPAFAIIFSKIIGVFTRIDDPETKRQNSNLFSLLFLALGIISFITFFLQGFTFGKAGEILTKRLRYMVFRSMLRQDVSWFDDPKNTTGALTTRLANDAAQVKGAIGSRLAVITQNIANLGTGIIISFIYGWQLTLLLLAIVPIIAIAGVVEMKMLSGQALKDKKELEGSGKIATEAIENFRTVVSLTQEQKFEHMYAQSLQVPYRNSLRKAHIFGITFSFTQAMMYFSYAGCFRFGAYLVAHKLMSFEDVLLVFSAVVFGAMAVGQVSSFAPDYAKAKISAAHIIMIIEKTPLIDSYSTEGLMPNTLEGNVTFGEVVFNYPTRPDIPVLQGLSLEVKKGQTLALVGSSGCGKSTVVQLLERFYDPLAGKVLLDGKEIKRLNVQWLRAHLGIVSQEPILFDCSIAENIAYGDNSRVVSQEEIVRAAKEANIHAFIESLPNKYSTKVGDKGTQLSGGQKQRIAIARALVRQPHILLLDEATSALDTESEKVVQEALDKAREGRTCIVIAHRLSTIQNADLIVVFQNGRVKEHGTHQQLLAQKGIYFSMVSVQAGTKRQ

Structure (SMILES) | bioavailability [1] [%] | F (absolute oral bioavailability) [1] [%] | P-gp substrate activity [2] | P-gp inhibition [2] | efflux ratio [3] | permeability [3] | oral bioavailability [4] [%]
CO[C@H]1C(=O)[C@]2(C)[C@@H](OC(=O)N(C)C)C[C@H]3OC[C@@]3(OC(C)=O)[C@H]2[C@H](OC(=O)c2ccccc2)[C@]2(O)C[C@H](OC(=O)[C@H](O)[C@@H](NC(=O)OC(C)(C)C)c3ccccc3)C(C)=C1C2(C)C [Compound T-13] | ~11 | 10.71 | poor substrates of P-gp | possessed inhibiting effects of P-gp mediated efflux | less than 2.0 | highest permeability | –
CO[C@H]1C(=O)[C@]2(C)[C@@H](OC(=O)N(C)C)C[C@H]3OC[C@@]3(OC(C)=O)[C@H]2[C@H](OC(=O)c2ccccc2)[C@]2(O)C[C@H](OC(=O)[C@H](O)[C@H](CC(C)C)NC(=O)OC(C)(C)C)C(C)=C1C2(C)C [Compound T-15] | – | – | – | – | less than 2.0 | highest permeability | –
CO[C@H]1C[C@H]2OC[C@@]2(OC(C)=O)[C@H]2[C@H](OC(=O)c3ccccc3)[C@]34OC(=O)O[C@H]3[C@H](OC(=O)[C@H](O)[C@@H](NC(=O)OC(C)(C)C)c3ccccc3)C(C)=C([C@@H](OC(=O)N(C)C)C(=O)[C@]12C)C4(C)C [Compound T-26] | ~66 | 65.79 | poor substrates of P-gp | possessed inhibiting effects of P-gp mediated efflux | less than 2.0 | highest permeability | –
CC(=O)O[C@H]1C(=O)[C@@]2(C)[C@H]([C@H](OC(=O)c3ccccc3)[C@]3(O)C[C@H](OC(=O)[C@H](O)[C@@H](NC(=O)c4ccccc4)c4ccccc4)C(C)=C1C3(C)C)[C@]1(OC(C)=O)CO[C@@H]1C[C@@H]2O [paclitaxel, Paclitaxel] | – | – | – | – | – | – | 5
